Test results reported in publication PMC10725991, “Kaempferol is a novel antiviral agent against channel catfish virus infection through blocking viral attachment and penetration in vitro” (Frontiers in Veterinary Science, 2023).

System: CCO cells
Experiment: Compounds cytotoxicity assay (CCK-8 cell viability)
Type: cell-based
Settings: channel catfish, 72 h
Experimental: The cytotoxicity effects of the selected compounds were detected in CCO cells by the cell viability assay. In brief, the CCO cells were seeded in 96-well plates and cultured to reach approximately 90% confluence in each well at 28°C. Subsequently, the monolayer cells were exposed to a maintenance medium with the tested compounds at different concentrations or DMSO for 72 h. Cell Counting Kit-8 (Beyotime, China) was used to measure the cell viability according to the manufacturer’s protocol after 72 h incubation. The optical density at 450 nm was measured using a Spark microplate reader (TECAN, Switzerland). Then, the maximum safe concentration (≥ 90% cell survived, SC90) of compounds to CCO cells was calculated according to the cell viability.
All data were analyzed with GraphPad Prism 8.0. Viral titers were log10 transformed prior to statistical analyses. The SC90 values were calculated using probit analysis. The data are expressed as the arithmetic mean ± standard deviation (SD) and were analyzed by one-way ANOVA with multiple comparisons test. Statistical significance was defined as *p < 0.05, **p < 0.01.
Figure 1 Cytotoxicity assay. The CCO cells were treated with 12 tested compounds with different concentrations in a 96-well plate for 72 h, and then the cell viability was measured by CCK-8. (A) Kaempferol, (B) Tannic acid, (C) P-Coumaric acid, (D) Magnolol, (E) Baicalein, (F) Genistein, (G) Mangiferin, (H) Rosmarinic acid, (I) Artemisinin, (J) Myricetin, (K) Ginkgolic acid, (L) Shikonin. Data represent mean ± SD normalized to values for DMSO treated group. The SC90 was analyzed and calculated using probit analysis. TEXT PRINTED IN THE PICTURE: (A) Kaempferol: SC90 = 47.53 μg/ml | (B) Tannic acid: SC90 = 90.02 μg/ml | (C) P-Coumaric acid: SC90 ≥500 μg/ml | (D) Magnolol: SC90 = 10.02 μg/ml | (E) Baicalein: SC90 = 29.73 μg/ml | (F) Genistein: SC90 = 13.66 μg/ml | (G) Mangiferin: SC90 ≥500 μg/ml | (H) Rosmarinic acid: SC90 = 46.37 μg/ml | (I) Artemisinin: SC90 ≥500 μg/ml | (J) Myricetin: SC90 = 346.19 μg/ml | (K) Ginkgolic acid: SC90 = 10.89 μg/ml | (L) Shikonin: SC90 = 54.44 μg/ml DOUBTS OF THE COPYIST ABOUT THIS PICTURE: All SC90 values are in small print, so 3, 5, 6, 8 and 9 are hard to tell apart / Kaempferol, SC90: 47.53 (5 or 3 uncertain) / Tannic acid, SC90: 90.02 (9 or 8 uncertain) / Baicalein, SC90: 29.73 (9 or 3 uncertain) / Genistein, SC90: 13.66 (3 and 6 uncertain) / Rosmarinic acid, SC90: 46.37 (6 and 3 uncertain) / Myricetin, SC90: 346.19 (3, 6 and 9 uncertain) / Ginkgolic acid, SC90: 10.89 (8 and 9 uncertain) / Shikonin, SC90: 54.44 (5 uncertain) / P-Coumaric acid, Mangiferin, Artemisinin, SC90: sign ≥ or >; 500 (5 uncertain)

Row | SMILES | SC90 (maximum safe concentration, ≥ 90% cell survived)
1 | O=c1c(O)c(-c2cc(O)c(O)c(O)c2)oc2cc(O)cc(O)c12 [Myricetin] | 346.19 µg/mL
2 | O=c1cc(-c2ccccc2)oc2cc(O)c(O)c(O)c12 [Baicalein] | 29.73 µg/mL
3 | C[C@@H]1CC[C@H]2[C@@H](C)C(=O)O[C@@H]3O[C@@]4(C)CC[C@@H]1[C@]32OO4 [Artemisinin, reference compound] | ≥ 500 µg/mL
